Assay results: ChEMBL document CHEMBL1255478, “Characterization of CSP-1, a novel extended-spectrum beta-lactamase produced by a clinical isolate of Capnocytophaga sputigena” (2010)
In brackets after ≈: the same amount, converted by molar mass.

Assays:
Assay type in all cases: functional
[1] = tested on: Capnocytophaga sputigena; test: Antimicrobial activity against Capnocytophaga sputigena isolate NOR after 2 days by agar dilution method; details: 48 h
[2] = tested on: Escherichia coli; test: Antimicrobial activity against Escherichia coli TOP10(pNOR-1) expressing CSP-1 gene after 2 days by agar dilution method; details: 48 h
[3] = tested on: Capnocytophaga sputigena; test: Antimicrobial activity against Capnocytophaga sputigena CRBIP 17.39 after 2 days by agar dilution method; details: CRBIP 17.39, 48 h
[4] = tested on: Capnocytophaga sputigena; test: Antimicrobial activity against Capnocytophaga sputigena CIP 104301T after 2 days by agar dilution method; details: 48 h
[5] = tested on: Escherichia coli; test: Antimicrobial activity against Escherichia coli TOP10 after 2 days by agar dilution method; details: TOP10, 48 h

SMILES	MIC [1] [µg/mL]	MIC [2] [µg/mL]	MIC [3] [µg/mL]	MIC [4] [µg/mL]	MIC [5] [µg/mL]
CC1(C)S[C@@H]2[C@H](NC(=O)[C@H](N)c3ccc(O)cc3)C(=O)N2[C@H]1C(=O)O [AMOXICILLIN]	256 (≈ 701 µM)	> 512	0.25 (≈ 0.684 µM)	0.25 (≈ 0.684 µM)	2 (≈ 5.47 µM)
C[C@H]1[C@H](NC(=O)/C(=N\OC(C)(C)C(=O)O)c2csc(N)n2)C(=O)N1S(=O)(=O)O [AZTREONAM]	0.125 (≈ 0.287 µM)	16 (≈ 36.7 µM)	0.125 (≈ 0.287 µM)	0.125 (≈ 0.287 µM)	–
CO/N=C(\C(=O)N[C@@H]1C(=O)N2C(C(=O)[O-])=C(C[N+]3(C)CCCC3)CS[C@H]12)c1csc(N)n1 [CEFEPIME]	0.125 (≈ 0.26 µM)	4 (≈ 8.32 µM)	< 0.06	< 0.06	–
CO/N=C(\C(=O)N[C@@H]1C(=O)N2C(C(=O)O)=C(COC(C)=O)CS[C@H]12)c1csc(N)n1 [CEFOTAXIME]	0.25 (≈ 0.549 µM)	8 (≈ 17.6 µM)	< 0.06	< 0.06	< 0.06
CO[C@@]1(NC(=O)Cc2cccs2)C(=O)N2C(C(=O)O)=C(COC(N)=O)CS[C@@H]21 [CEFOXITIN]	0.5 (≈ 1.17 µM)	2 (≈ 4.68 µM)	0.5 (≈ 1.17 µM)	0.5 (≈ 1.17 µM)	2 (≈ 4.68 µM)
CC(C)(O/N=C(\C(=O)N[C@@H]1C(=O)N2C(C(=O)[O-])=C(C[n+]3ccccc3)CS[C@H]12)c1csc(N)n1)C(=O)O [CEFTAZIDIME]	4 (≈ 7.32 µM)	0.5 (≈ 0.915 µM)	< 0.06	< 0.06	< 0.06
CO/N=C(\C(=O)N[C@@H]1C(=O)N2C(C(=O)O)=C(COC(N)=O)CS[C@H]12)c1ccco1 [CEFUROXIME]	64 (≈ 151 µM)	256 (≈ 603 µM)	0.5 (≈ 1.18 µM)	0.5 (≈ 1.18 µM)	0.5 (≈ 1.18 µM)
CC(=O)OCC1=C(C(=O)O)N2C(=O)[C@@H](NC(=O)Cc3cccs3)[C@H]2SC1 [CEPHALOTHIN]	64 (≈ 161 µM)	> 512	0.125 (≈ 0.315 µM)	0.25 (≈ 0.631 µM)	4 (≈ 10.1 µM)
C[C@@H](O)[C@H]1C(=O)N2C(C(=O)O)=C(SCCNC=N)C[C@H]12 [IMIPENEM ANHYDROUS]	0.06 (≈ 0.2 µM)	0.06 (≈ 0.2 µM)	0.06 (≈ 0.2 µM)	0.06 (≈ 0.2 µM)	–
CCN1CCN(C(=O)N[C@@H](C(=O)N[C@@H]2C(=O)N3[C@@H]2SC(C)(C)[C@@H]3C(=O)O)c2ccccc2)C(=O)C1=O [PIPERACILLIN]	0.5 (≈ 0.966 µM)	16 (≈ 30.9 µM)	0.25 (≈ 0.483 µM)	0.25 (≈ 0.483 µM)	1 (≈ 1.93 µM)
CC1(C)S[C@@H]2[C@H](NC(=O)[C@H](C(=O)O)c3ccsc3)C(=O)N2[C@H]1C(=O)O [TICARCILLIN]	4 (≈ 10.4 µM)	> 512	0.25 (≈ 0.65 µM)	0.25 (≈ 0.65 µM)	1 (≈ 2.6 µM)
